We go through two compounds from patent US4774381A, “Herbicide resistant tobacco” (E. I. Du Pont de Nemours and Company, priority 1985, dated 1988).

For assay [1], the system named is yeast Saccharomyces cerevisiae. As to conditions: medium supplementation; cited from earlier work.
Assay [2] deals with H1 (parent) callus. Briefly: Callus growth test with chlorsulfuron and structural analogues. The format is cell-based, Nicotiana tabacum. To be noted: 10 ppb compound, 2 weeks in the dark. As for the experimental part: (§1) In these growth tests, petri dishes containing C1 agar medium and 10 ppb of the sulfonamide herbicide chlorsulfuron and Compounds A through E were prepared. A sterile filter paper disc was placed in the center of each plate, and inoculated with 250 mg of callus tissue homozygous for the S4 mutation, or callus tissue derived from the haploid parent H1. The resulting cultures were incubated at 25° in the dark for 2 weeks. At the conclusion of the incubation period, filter discs containing callus cells were removed from culture dishes, placed on a Buchner funnel, and gentle suction applied to remove excess water. The resulting callus mass was then carefully scraped from the filter disc and weighed. Four replicates were included in each experiment.

For assay [3], the system named is S4/S4 callus. The description is as above. The format is cell-based, Nicotiana tabacum. As to conditions: 10 ppb compound, 2 weeks in the dark. On the procedure:
as §1

Assay [4] deals with acetolactate synthase (ALS), Isolate 10 (S4/+) extract. Put plainly: ALS activity assay in cell extracts. The format is biochemical, Nicotiana tabacum. On the procedure: (§2) Cell suspension cultures of normal (H1) and homozygous mutant (Isolate 16) cell lines were washed in C1 liquid medium. After washing, cells were extracted in a 100 mM potassium phosphate buffer (pH 7.5) containing 0.5 mM MgCl2, 1 mM sodium pyruvate, 0.5 mM thiamine pyrophosphate, 10 micromolar flavine-adenine dinucleotide (FAD) and 10 percent (by volume) glycerol. Polyclar AT (BDH Chemicals Ltd) was added to a final concentration of 250 mg per gram fresh weight of tissue. After centrifugation at 27,000xg for 15 minutes at 4°, an equal volume of a saturated solution of amminium sulfate was added to the supernatant fraction. The resultant precipitate (representing a 0 to 50 percent ammonium sulfate fraction) was redissolved in 100 mM potassium phosphate buffer (pH 7.5) containing 0.5 mM MgCl2, 1 mM sodium pyruvate, and salts were removed by passage through a Sephadex G-25 (Pharmacia PD-10) column.
(§3) ALS activity was assayed in a total volume of 500 microliters containing 100 microliters of the column eluate, 65 mM potassium phosphate buffer (pH 7.5) containing 10 mM MgCl2, 40 mM sodium pyruvate, 250 micromolar thiamine pyrophosphate, 23 micromolar FAD, […] After incubation at 30° for 90 minutes, 250 microliters of 6N H2 SO4 was added to each assay tube, and the tubes were incubated at 55° for 10 minutes to terminate the enzymatic reaction and achieve complete conversion of acetolactate to acetoin. Acetoin content was then measured by a modification of the procedure described by Westerfield, J. Biol. Chem. 161:495 (1945). To each tube was added sequentially 100 microliters 50 percent NaOH, 150 microliters 0.5 percent creatine, and 150 microliters 5 percent alpha-napthol (in 2.5N NaOH). Color development was accelerated by incubation at 55° for 10 minutes. Tubes were then centrifuged, and the optical density was read at 530 nm. Background optical densities, which were subtracted from the optical density values of the reactions, were determined for each extract from parallel assays to which the enzyme extract was added after the addition of 6N H2 SO4. Protein concentrations were measured with Bio-Rad Protein Assay reagent with bovine serum albumin as a standard. Data points and specific activities, which are set forth below and in FIG. 2, represent the average values of at least three independent determinations. ALS activities are presented in FIG. 2 as percent activity in the absence of herbicide.
(§4) Responses to chlorsulfuron were determined for ALS activities in extracts of cells suspension cultures derived from nine individuals that differed with resepct to the S4 mutation. As described above, these individuals were produced by self-fertilization of an S4/+ heterozygote, and their genotypes were established by means of progeny analysis. Callus and plant phenotypes were determined by growth responses of cell cultures and seedlings, respectively, on herbicide-supplemented medium. […] In contrast, all individuals homozygous for the S4 mutation contained a highly resistant form of the enzyme. […] The correlation between both callus and plant phenotype and the response of ALS activity in vitro to the herbicide is both absolute and quantitative.

Assay [5] deals with acetolactate synthase (ALS), Isolate 23 (S4/+) extract. Put plainly: ALS activity assay in cell extracts. Format: biochemical, Nicotiana tabacum. As for the experimental part:
as §2, §3, §4

Assay [6] deals with acetolactate synthase (ALS), Isolate 1 (+/+) extract. Put plainly: ALS activity assay in cell extracts. The format is biochemical, Nicotiana tabacum. As for the experimental part: as §2
(§5) ALS activity was assayed in a total volume of 500 microliters containing 100 microliters of the column eluate, 65 mM potassium phosphate buffer (pH 7.5) containing 10 mM MgCl2, 40 mM sodium pyruvate, 250 micromolar thiamine pyrophosphate, 23 micromolar FAD, and 1, 5, 10, 50, 100, 500 or 1000 ppb chlorsulfuron or sulfometuron-methyl. After incubation at 30° for 90 minutes, 250 microliters of 6N H2 SO4 was added to each assay tube, and the tubes were incubated at 55° for 10 minutes to terminate the enzymatic reaction and achieve complete conversion of acetolactate to acetoin. Acetoin content was then measured by a modification of the procedure described by Westerfield, J. Biol. Chem. 161:495 (1945). To each tube was added sequentially 100 microliters 50 percent NaOH, 150 microliters 0.5 percent creatine, and 150 microliters 5 percent alpha-napthol (in 2.5N NaOH). Color development was accelerated by incubation at 55° for 10 minutes. Tubes were then centrifuged, and the optical density was read at 530 nm. Background optical densities, which were subtracted from the optical density values of the reactions, were determined for each extract from parallel assays to which the enzyme extract was added after the addition of 6N H2 SO4. Protein concentrations were measured with Bio-Rad Protein Assay reagent with bovine serum albumin as a standard. Data points and specific activities, which are set forth below and in FIG. 2, represent the average values of at least three independent determinations. ALS activities are presented in FIG. 2 as percent activity in the absence of herbicide.
as §4

The test system of assay [7] is acetolactate synthase (ALS), Isolate 24 (S4/+) extract. Briefly: ALS activity assay in cell extracts. The format is biochemical, Nicotiana tabacum. As for the experimental part:
as §2, §5, §4

In assay [8] the test system is acetolactate synthase (ALS), Isolate 27 (S4/S4) extract. Put plainly: ALS activity assay in cell extracts. The format is biochemical, Nicotiana tabacum. As for the experimental part: as §2, §5, §4
Assay [9] has as its system acetolactate synthase (ALS), Isolate 30 (S4/S4) extract. Put plainly: ALS activity assay in cell extracts. The format is biochemical, Nicotiana tabacum. On the procedure: as §2, §5, §4
The test system of assay [10] is acetolactate synthase (ALS), Isolate 9 (S4/+) extract. Briefly: ALS activity assay in cell extracts. The format is biochemical, Nicotiana tabacum. As for the experimental part:
as §2, §5, §4

For assay [11], the system named is pea seedlings and root cultures. To be noted: medium supplementation; cited from earlier work.

Each structure is given as a SMILES string.

Turning to `COC(=O)c1ccccc1S(=O)(=O)NC(=O)Nc1nc(C)cc(C)n1` [Sulfometuron-methyl, sulfometuron-methyl], the “reversal of growth inhibition” value in assay [1] was “restored by addition of isoleucine, leucine, and valine”.
Take `COc1nc(C)nc(NC(=O)NS(=O)(=O)c2ccccc2Cl)n1` [Chlorsulfuron, chlorsulfuron]: the “Mean Fresh Weight” value is recorded as 0 g in [2] and 4.42 g in [3]. The “Uninhibited activity (%) in the Presence of Chlorsulfuron” value (“Uninhibited activity (%)” below) in assay [4] (10 ppb) is on record as 61%; in assay [4] (30 ppb), 52%; in assay [4] (100 ppb), 45%; in assay [5] (10 ppb), 64%; in assay [5] (30 ppb), 53%; in assay [5] (100 ppb), 46%. The “Uninhibited activity (%)” value in [6] (10 ppb) came out at 42%; in assay [6] (30 ppb) it was 29%; in [6] (100 ppb) it was 23%; in assay [7] (10 ppb), 60%; in [7] (30 ppb) it was 47%; in [7] (100 ppb) it was 41%. Moreover, the “Uninhibited activity (%)” value in [8] (10 ppb) was determined as 88%; in [8] (30 ppb) it was 82%; in assay [8] (100 ppb), 79%; in assay [9] (10 ppb) it was 89%; in [9] (30 ppb), 83%; in assay [9] (100 ppb), 81%. The “Uninhibited activity (%)” value in [10] (10 ppb) is 59%; in [10] (30 ppb), 50%; in assay [10] (100 ppb), 42%. In addition, the “reversal of growth inhibition” value in assay [11] is “prevented by supplementation of the medium with isoleucine and valine”.
